# Experimental data published in US8071345B2, “Stabilized subtilisin composition” (Novozymes A/S, priority 2006, dated 2011).
# pKi: −log10 of the molar value.
# Molecular target: T1, Savinase (Lederbergia lenta, UniProt P29600)
# T1 construct: Novozymes A/S
# T1 sequence (P29600 1-269): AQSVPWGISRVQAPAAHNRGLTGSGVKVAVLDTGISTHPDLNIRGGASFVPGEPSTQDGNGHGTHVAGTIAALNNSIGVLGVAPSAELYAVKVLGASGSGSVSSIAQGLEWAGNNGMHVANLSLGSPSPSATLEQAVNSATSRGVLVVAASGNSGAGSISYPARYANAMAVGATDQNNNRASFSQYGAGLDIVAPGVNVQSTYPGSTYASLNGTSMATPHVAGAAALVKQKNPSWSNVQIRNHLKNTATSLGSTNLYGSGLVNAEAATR
# Test: biochemical
# Settings: not given
# Protocol: The inhibition constant KI=[E][I]/[EI] for the inhibition of Savinase was determined using standard methods under the following conditions:
# Substrate: Succinyl-Alanine-Alanine-Proline-para-nitro-anilide=SAAPFpNA (Sigma S-7388).
# Buffer: 0.1 M phosphate buffer pH 7.5
# Enzyme concentration in assay≈1×10^−8 M
# The initial rate of substrate hydrolysis was determined with and without inhibitor at nine substrate concentrations in the range of 0.01 mM to 2 mM using an automated spectrophotometer.
# The inhibition constant KI was determined using Sigma Plot 9.0, Enzyme Kinetics Module 1.1
row,SMILES,pKi
1,O=C(O)Cc1ccccc1Cl [2-chlorophenylacetic acid],1.96
2,O=C(O)c1ccccc1 [Benzoic Acid],1.66
3,Nc1ccccc1C(=O)O [2-aminobenzoic acid],1.80
4,O=C(O)Cc1ccccc1 [Phenylacetic acid],2.00
5,O=C(O)c1cccc(Cl)c1 [3-chlorobenzoic acid],2.40
6,"O=Cc1ccc(O)c(O)c1 [3,4-dihydrozybenzaldehyde]",1.96
7,O=C(O)Cc1cccc(Cl)c1 [3-chlorophenylacetic acid],2.15

# Same assay, conditions: Example 1; 0.1 M phosphate buffer pH 7.5, 25° C., substrate SAAPFpNA 0.01-2 mM, enzyme ≈1×10^−8 M; read-out: Ki
row,SMILES,pKi
1,O=C(O)CCc1ccccc1 [Phenylpropionic acid],2.05
2,O=Cc1ccc(C(=O)O)cc1 [4-formylbenzoic acid],1.60
3,O=C(O)c1ccc(C(=O)O)cc1 [Terephtalic acid (4-carboxybenzoic acid)],1.00
4,"O=C(O)c1cc(Cl)cc(Cl)c1 [3,5-dichorobenzoic acid]",2.70

# Same assay, conditions: Example 2, acids; 0.1 M phosphate buffer pH 7.5, 25° C., substrate SAAPFpNA 0.01-2 mM, enzyme ≈1×10^−8 M; read-out: Ki
row,SMILES,pKi
1,O=C(O)c1cccc(Br)c1 [3-bromobenzoic acid],2.22
2,Nc1cccc(C(=O)O)c1 [3-aminobenzoic acid],1.37
3,O=C(O)CCc1ccc(Cl)cc1 [3-(4-chlorophenyl)propionic acid],2.00
4,O=C(O)c1cccc(I)c1 [3-iodobenzoic acid],2.05
5,O=C(O)c1cccc([N+](=O)[O-])c1 [3-nitrobenzoic acid],2.05
6,O=C(O)CCc1cccc(Cl)c1 [3-(3-chlorophenyl)propionic acid],2.30
7,O=Cc1cccc(C(=O)O)c1 [3-formylbenzoic acid],1.57
8,O=C(O)c1cccc(O)c1 [3-hydroxybenzoic acid],1.54
9,O=C(O)c1ccccc1Cl [2-chlorobenzoic acid],1.80
10,"O=C(O)c1cc(O)cc(O)c1 [3,5-dihydroxybenzoic acid]",1.12
11,Nc1ccc(C(=O)O)cc1 [4-aminobenzoic acid],1.09
12,O=C(O)c1cccc(CCl)c1 [3-(chloromethyl)benzoic acid],1.49
13,O=C(O)Cc1ccc(Cl)cc1 [4-chlorophenylacetic acid],1.96
14,O=C(O)c1cccc(F)c1 [3-fluorobenzoic acid],1.77
15,O=C(O)CCCc1ccccc1 [4-phenylbutyric acid],1.72

# Same assay, conditions: Example 3, aldehydes; 0.1 M phosphate buffer pH 7.5, 25° C., substrate SAAPFpNA 0.01-2 mM, enzyme ≈1×10^−8 M; read-out: Ki
row,SMILES,pKi
1,O=Cc1cccc(O)c1 [3-hydroxybenzaldehyde],1.80

# Test system: proteolytic enzymes
# Test: not given
# Settings: as claimed in WO 92/19707; cited from earlier work
row,SMILES,inhibitor of proteolytic enzymes
1,CC(=O)Nc1cccc(B(O)O)c1 [acetamidophenyl boronic acid],superior inhibitor

# Molecular target: subtilisin (Bacillus licheniformis, UniProt P00780)
# Sequence (P00780 106-379): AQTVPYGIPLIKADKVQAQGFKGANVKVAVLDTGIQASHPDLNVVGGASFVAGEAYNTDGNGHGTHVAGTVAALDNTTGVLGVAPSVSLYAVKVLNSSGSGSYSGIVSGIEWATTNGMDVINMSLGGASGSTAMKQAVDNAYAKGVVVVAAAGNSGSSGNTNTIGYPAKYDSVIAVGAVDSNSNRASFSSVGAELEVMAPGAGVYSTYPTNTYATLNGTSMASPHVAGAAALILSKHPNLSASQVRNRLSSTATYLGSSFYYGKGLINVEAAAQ
# Test: not given
# Settings: Keller et al, Biochem. Biophys. Res. Com. 176, 1991; cited from earlier work
row,SMILES,capacity as subtilisin inhibitor
1,"OB(O)c1cc(Cl)cc(Cl)c1 [3,5-dichlorophenylboronic acid]",particularly effective
2,CB(O)O [methylboronic acid],poorest inhibitor
